Results from patent US10344025B2, “GLS1 inhibitors for treating disease” (Board of Regents, The University of Texas System, priority 2014, dated 2019).

Tests used:
[1] = biological target: purified recombinant human GAC (GLS1) (Homo sapiens (Human), UniProt O94925); assay: GLS1 Enzymatic Activity Assay (dual-coupled enzymatic assay, resorufin/Amplex UltraRed readout); assay type: biochemical;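 note: glutamate from GAC coupled via glutamate oxidase and peroxidase to resorufin, read as fluorescence (ex 530, em 590 nm) kinetically or at 20 min, four-parameter logistic IC50 fit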
purified recombinant human GAC (GLS1), sequence (O94925 other isoform, or with tags, fused parts or gaps): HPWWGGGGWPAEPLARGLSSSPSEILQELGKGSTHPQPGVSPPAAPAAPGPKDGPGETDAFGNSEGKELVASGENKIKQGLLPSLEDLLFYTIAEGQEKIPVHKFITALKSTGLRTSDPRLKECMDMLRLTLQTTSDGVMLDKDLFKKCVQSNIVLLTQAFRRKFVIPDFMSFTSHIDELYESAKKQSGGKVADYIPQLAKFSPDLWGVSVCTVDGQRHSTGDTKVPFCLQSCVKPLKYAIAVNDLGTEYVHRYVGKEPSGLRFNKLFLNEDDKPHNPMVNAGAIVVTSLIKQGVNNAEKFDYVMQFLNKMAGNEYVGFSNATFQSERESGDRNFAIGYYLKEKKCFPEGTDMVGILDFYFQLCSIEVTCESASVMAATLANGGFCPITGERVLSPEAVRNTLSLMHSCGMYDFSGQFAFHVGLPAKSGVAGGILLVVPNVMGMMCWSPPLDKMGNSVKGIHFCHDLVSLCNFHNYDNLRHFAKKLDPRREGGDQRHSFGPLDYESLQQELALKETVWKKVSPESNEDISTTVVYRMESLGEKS

[2] = test system: A549 cells; assay: Proliferation Assay (A549 viability, Cell Titer Fluor, 72 hours); assay type: cell-based; settings: Homo sapiens, A549, 72 h
Summary of the method: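 A549 cells seeded at 1000 cells/well, rested 24 h, then exposed to compound in 0.5% DMSO for 72 h at 37 °C. Viability read by Cell Titer Fluor fluorescence; IC50 from four-parameter logistic fit.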

SMILES: O=C(CN1CCC(F)(F)C1)Nc1cn(CCCCn2cc(C(=O)NCc3cc(Cl)ccc3F)nn2)nn1 [Example 355, N-[(5-chloro-2-fluorophenyl)methyl]-1-(4-{4-[2-(3,3-difluoropyrrolidin-1-yl)acetamido]-1H-1,2,3-triazol-1-yl}butyl)-1H-1,2,3-triazole-4-carboxamide]
- IC50 [1]: 0.1 to 0.5 µM
- EC50 [2]: 0.1 to 0.5 µM

SMILES: O=C(Cc1cccnc1)Nc1cn(CCCCn2cc(C(=O)NCc3cccnc3)nn2)nn1 [Example 320, 1-(4-{4-[2-(pyridin-3-yl)acetamido]-1H-1,2,3-triazol-1-yl}butyl)-N-(pyridin-3-ylmethyl)-1H-1,2,3-triazole-4-carboxamide]
- IC50 [1]: 0.1 to 0.5 µM
- EC50 [2]: 0.5 to 5 µM

SMILES: COCCNC(=O)c1nnc(CCCCn2cc(C(=O)NCc3cccc(C(F)(F)F)c3)nn2)s1 [Example 7, N-(2-methoxyethyl)-5-(4-(4-(3-(trifluoromethyl)benzylcarbamoyl)-1H-1,2,3-triazol-1-yl)butyl)-1,3,4-thiadiazole-2-carboxamide]
- IC50 [1]: 0.1 to 0.5 µM
- EC50 [2]: 0.1 to 0.5 µM

SMILES: O=C(NCc1cccc(C(F)(F)F)c1)c1cn(CCCCn2cc(C(=O)NCC3CCCOC3)nn2)nn1 (stereo not drawn) [Example 119, N-(oxan-3-ylmethyl)-1-{4-[4-({[3-(trifluoromethyl)phenyl]methyl}carbamoyl)-1H-1,2,3-triazol-1-yl]butyl}-1H-1,2,3-triazole-4-carboxamide]
- IC50 [1]: 0.1 to 0.5 µM
- EC50 [2]: 0.1 to 0.5 µM

SMILES: O=C(NCc1cccc(C(F)(F)F)c1)c1cn(CCCCn2cc(C(=O)NCC3CCOCC3)nn2)nn1 [Example 120, N-(oxan-4-ylmethyl)-1-{4-[4-({[3-(trifluoromethyl)phenyl]methyl}carbamoyl)-1H-1,2,3-triazol-1-yl]butyl}-1H-1,2,3-triazole-4-carboxamide]
- IC50 [1]: 0.1 to 0.5 µM
- EC50 [2]: 0.5 to 5 µM

SMILES: O=C(NCc1cc(OC(F)(F)F)ccc1F)c1cn(CCC(F)Cn2cc(C(=O)N[C@H](CO)c3ccccc3)nn2)nn1 (stereo partly drawn) [Example 452, 1-{2-fluoro-4-[4-({[2-fluoro-5-(trifluoromethoxy)phenyl]methyl}carbamoyl)-1H-1,2,3-triazol-1-yl]butyl}-N-[(1S)-2-hydroxy-1-phenylethyl]-1H-1,2,3-triazole-4-carboxamide]
- IC50 [1]: < 0.1 µM
- EC50 [2]: 0.1 to 0.5 µM

SMILES: O=C(Cc1ccccn1)Nc1nnc(CCCCn2cc(C(=O)NCc3cccc(OC(F)(F)F)c3)nn2)s1 [Example 553, 1-(4-{5-[2-(pyridin-2-yl)acetamido]-1,3,4-thiadiazol-2-yl}butyl)-N-{[3-(trifluoromethoxy)phenyl]methyl}-1H-1,2,3-triazole-4-carboxamide]
- IC50 [1]: < 0.1 µM
- EC50 [2]: < 0.1 µM

SMILES: CNC(=O)c1nnc(CCCCc2ccc(NC(=O)Cc3cc(OC(F)(F)F)ccc3F)nn2)s1 [Example 598, 5-(4-(6-(2-(2-fluoro-5-(trifluoromethoxy)phenyl)acetamido)pyridazin-3-yl)butyl)-N-methyl-1,3,4-thiadiazole-2-carboxamide]
- IC50 [1]: < 0.1 µM
- EC50 [2]: < 0.1 µM

SMILES: CC(=O)Nc1ccc(CCCCc2nnc(C(=O)NCc3cncc(C(F)(F)F)c3)s2)nn1 [Example 602, 5-(4-(6-acetamidopyridazin-3-yl)butyl)-N-((5-(trifluoromethyl)pyridin-3-yl)methyl)-1,3,4-thiadiazole-2-carboxamide]
- IC50 [1]: < 0.1 µM
- EC50 [2]: < 0.1 µM

SMILES: CC(C)(C)OC(=O)NCc1cccc(CNC(=O)c2cn(CCCCn3cc(C(=O)NCc4cc(C(F)(F)F)ccn4)nn3)nn2)c1 [Example 110, tert-butyl N-[(3-{[(1-{4-[4-({[4-(trifluoromethyl)pyridin-2-yl]methyl}carbamoyl)-1H-1,2,3-triazol-1-yl]butyl}-1H-1,2,3-triazol-4-yl)formamido]methyl}phenyl)methyl]carbamate]
- IC50 [1]: < 0.1 µM
- EC50 [2]: < 0.1 µM

SMILES: O=C(NCc1cc(C(F)(F)F)ccn1)c1cn(CCC(F)Cn2cc(C(=O)NCc3cncc(C(F)(F)F)c3)nn2)nn1 (stereo not drawn) [Example 145, 1-{3-fluoro-4-[4-({[5-(trifluoromethyl)pyridin-3-yl]methyl}carbamoyl)-1H-1,2,3-triazol-1-yl]butyl}-N-1{[4-(trifluoromethyl)pyridin-2-yl]methyl}-1H-1,2,3-triazole-4-carboxamide]
- IC50 [1]: < 0.1 µM
- EC50 [2]: < 0.1 µM

SMILES: CC(=O)Nc1nnc(CCC(F)Cn2cc(C(=O)NCc3cccc(OC(F)(F)F)c3)nn2)s1 (stereo not drawn) [Example 566, 1-(4-(5-acetamido-1,3,4-thiadiazo1-2-yl)-2-fluorobutyl)-N-(3-(trifluoromethoxy)benzyl)-1H-1,2,3-triazole-4-carboxamide]
- IC50 [1]: < 0.1 µM
- EC50 [2]: 0.1 to 0.5 µM

SMILES: O=C(NCc1cc(C(F)(F)F)ccn1)c1cn(CC(F)CCn2cc(C(=O)N[C@H](CO)c3ccccc3)nn2)nn1 (stereo partly drawn) [Example 130, 1-[2-fluoro-4-(4-{[(1S)-2-hydroxy-1-phenylethyl]carbamoyl}-1H-1,2,3-triazol-1-yl)butyl]-N-1{[4-(trifluoromethyl)pyridin-2-yl]methyl}-1H-1,2,3-triazole-4-carboxamide]
- IC50 [1]: 0.1 to 0.5 µM
- EC50 [2]: 0.1 to 0.5 µM

SMILES: O=C(Cc1cc(OC(F)(F)F)ccc1F)Nc1cn(CCC(F)Cn2cc(C(=O)NCc3cccc(OC(F)(F)F)c3)nn2)nn1 (stereo not drawn) [Example 416, 1-[2-fluoro-4-(4-{2-[2-fluoro-5-(trifluoromethoxy)phenyl]acetamido}-1H-1,2,3-triazol-1-yl)butyl]-N-{[3-(trifluoromethoxy)phenyl]methyl}-1H-1,2,3-triazole-4-carboxamide]
- IC50 [1]: < 0.1 µM
- EC50 [2]: < 0.1 µM

SMILES: Cc1ccc(CNC(=O)c2cn(CCCCn3cc(NC(=O)Cc4cccnc4)nn3)nn2)cn1 [Example 315, N-[(6-methylpyridin-3-yl)methyl]-1-(4-{4-[2-(pyridin-3-yl)acetamido]-1H-1,2,3-triazol-1-yl}butyl)-1H-1,2,3-triazole-4-carboxamide]
- IC50 [1]: 0.1 to 0.5 µM
- EC50 [2]: 0.5 to 5 µM

SMILES: CC(=O)Nc1ccc(CCCCc2nnc(C(=O)NCc3cccc(OC(F)(F)F)c3)s2)nn1 [Example 599, 5-(4-(6-acetamidopyridazin-3-yl)butyl)-N-(3-(trifluoromethoxy)benzyl)-1,3,4-thiadiazole-2-carboxamide]
- IC50 [1]: < 0.1 µM
- EC50 [2]: < 0.1 µM

SMILES: O=C(NCc1cccc(C(F)(F)F)c1)c1cn(CCC(F)Cn2cc(C(=O)NCc3cc(C(F)(F)F)ccn3)nn2)nn1 (stereo not drawn) [Example 455, 1-{2-fluoro-4-[4-({[3-(trifluoromethyl)phenyl]methyl}carbamoyl)-1H-1,2,3-triazol-1-yl]butyl}-N-{[4-(trifluoromethyl)pyridin-2-yl]methyl}-1H-1,2,3-triazole-4-carboxamide]
- IC50 [1]: < 0.1 µM
- EC50 [2]: < 0.1 µM

SMILES: O=C(Cc1cc(OC(F)(F)F)ccc1F)Nc1cn(CCCCn2cc(C(=O)NCc3cc(OC(F)(F)F)ccc3F)nn2)nn1 [Example 381, 1-[4-(4-{2-[2-fluoro-5-(trifluoromethoxy)phenyl]acetamido}-1H-1,2,3-triazol-1-yl)butyl]-N-{[2-fluoro-5-(trifluoromethoxy)phenyl]methyl}-1H-1,2,3-triazole-4-carboxamide]
- IC50 [1]: < 0.1 µM
- EC50 [2]: < 0.1 µM

SMILES: CNC(=O)c1cn(CCCCc2ccc(NC(=O)Cc3ccccc3)nn2)nn1 [Example 161, N-methyl-1-{4-[6-(2-phenylacetamido)pyridazin-3-yl]butyl}-1H-1,2,3-triazole-4-carboxamide]
- IC50 [1]: < 0.1 µM
- EC50 [2]: < 0.1 µM

SMILES: O=C(Cc1ccc(OC(F)(F)F)cc1F)Nc1cn(CCCCn2cc(C(=O)NCc3ccccn3)nn2)nn1 [Example 367, 1-[4-(4-{2-[2-fluoro-4-(trifluoromethoxy)phenyl]acetamido}-1H-1,2,3-triazol-1-yl)butyl]-N-(pyridin-2-ylmethyl)-1H-1,2,3-triazole-4-carboxamide]
- IC50 [1]: < 0.1 µM
- EC50 [2]: 0.1 to 0.5 µM

SMILES: Cc1ccc(CC(=O)Nc2cn(CCCCn3cc(C(=O)NCc4cc(OC(F)(F)F)ccc4F)nn3)nn2)cn1 [Example 335, N-{[2-fluoro-5-(trifluoromethoxy)phenyl]methyl}-1-(4-{4-[2-(6-methylpyridin-3-yl)acetamido]-1H-1,2,3-triazol-1-yl}butyl)-1H-1,2,3-triazole-4-carboxamide]
- IC50 [1]: < 0.1 µM
- EC50 [2]: < 0.1 µM

SMILES: O=C(NCc1cncc(C(F)(F)F)c1)c1cn(CC(F)CCc2nnc(C(=O)NCC(F)(F)F)s2)nn1 (stereo not drawn) [Example 500, 5-{3-fluoro-4-[4-({[5-(trifluoromethyl)pyridin-3-yl]methyl}carbamoyl)-1H-1,2,3-triazol-1-yl]butyl}-N-(2,2,2-trifluoroethyl)-1,3,4-thiadiazole-2-carboxamide]
- IC50 [1]: 0.1 to 0.5 µM
- EC50 [2]: 0.1 to 0.5 µM

SMILES: CNC(=O)c1cn(CCCCc2ccc(NC(=O)Cc3cc(C4CCOCC4)ccn3)nn2)nn1 [Example 208, N-methyl-1-(4-(6-(2-(4-(tetrahydro-2H-pyran-4-yl)pyridin-2-yl)acetamido)pyridazin-3-yl)butyl)-1H-1,2,3-triazole-4-carboxamide]
- IC50 [1]: < 0.1 µM
- EC50 [2]: 0.1 to 0.5 µM

SMILES: O=C(NCc1cccc(OC(F)(F)F)c1)c1cn(CCC(F)Cn2cc(C(=O)NCc3cc(C4CC4)ccn3)nn2)nn1 (stereo not drawn) [Example 147]
- IC50 [1]: < 0.1 µM
- EC50 [2]: < 0.1 µM

SMILES: O=C(NCc1ccccc1)c1cn(CCC(F)Cn2cc(C(=O)NCc3cc(C(F)(F)F)ccn3)nn2)nn1 (stereo not drawn) [Example 460, 1-{4-[4-(benzylcarbamoyl)-1H-1,2,3-triazol-1-yl]-2-fluorobutyl}-N-{[4-(trifluoromethyl)pyridin-2-yl]methyl}-1H-1,2,3-triazole-4-carboxamide]
- IC50 [1]: 0.1 to 0.5 µM
- EC50 [2]: 0.1 to 0.5 µM

SMILES: CNC(=O)c1nnc(CCCCn2cc(C(=O)NCc3cc(C(F)(F)F)ccn3)nn2)s1 [Example 603, N-methyl-5-(4-(4-(((4-(trifluoromethyl)pyridin-2-yl)methyl)carbamoyl)-1H-1,2,3-triazol-1-yl)butyl)-1,3,4-thiadiazole-2-carboxamide]
- IC50 [1]: 0.5 to 5 µM
- EC50 [2]: > 5 µM

SMILES: O=C(Cc1cccc(OC(F)(F)F)c1)Nc1nnc(CCC(F)Cn2cc(C(=O)NC3CC3)nn2)s1 (stereo not drawn) [Example 534, N-cyclopropyl-1-[2-fluoro-4-(5-{2-[3-(trifluoromethoxy)phenyl]acetamido}-1,3,4-thiadiazol-2-yl)butyl]-1H-1,2,3-triazole-4-carboxamide]
- IC50 [1]: < 0.1 µM
- EC50 [2]: 0.1 to 0.5 µM
